Test results from US12180226B2, “Spirotricycle RIPK1 inhibitors and methods of uses thereof” (Merck Sharp & Dohme LLC, priority 2021, dated 2024).
Structures can show the parent of a compound that is named as a salt.

biological target: RIPK1 (recombinant GST-RIPK1 kinase domain, residues 1-327) (Homo sapiens (Human), UniProt Q13546); assay: RIPK1-ADP-Glo Enzymatic Assay; type: biochemical; conditions: ADP-Glo; 25 nM GST-RIPK1, 300 μM ATP; assay lower limit ~25 nM; read-out: RIPK1 V0 Ec50
How it was run: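 Compounds titrated 10-pt 1:3 from 100000 nM top (1% DMSO); 30 min preinc w/ 25 nM Sf21-expressed enzyme, RT; start w/ ATP (300 μM final) + dephos-MBP (3 μM); 150 min; ADP-Glo lumi; 4-param fit → EC50.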

Sequence of RIPK1 (recombinant GST-RIPK1 kinase domain, residues 1-327) (Q13546 1-327): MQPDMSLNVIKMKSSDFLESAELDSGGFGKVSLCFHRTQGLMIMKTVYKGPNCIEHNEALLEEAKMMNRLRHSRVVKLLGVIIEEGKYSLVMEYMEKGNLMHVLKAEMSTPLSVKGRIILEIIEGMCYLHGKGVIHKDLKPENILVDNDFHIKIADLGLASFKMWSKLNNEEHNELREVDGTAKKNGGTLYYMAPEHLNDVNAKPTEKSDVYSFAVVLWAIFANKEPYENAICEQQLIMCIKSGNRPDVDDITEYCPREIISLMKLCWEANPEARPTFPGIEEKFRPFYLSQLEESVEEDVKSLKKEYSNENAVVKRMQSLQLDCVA

Row | SMILES | EC50 [nM]
1 | O=C(c1ccccc1)N1CCC2(O[C@@H]3CC[C@@H](c4ccccc4)N3C2=O)C(F)C1 (single isomer, unassigned) [Example 2.2, (3[R or S],4[S or R], 5′S,7a′R)-1-benzoyl-3-fluoro-5′-phenyltetrahydro-3′H-spiro[piperidine-4,2′-pyrrolo[2,1-b]oxazol]-3′-one] | < 25
2 | N#Cc1nccc(N2CCC3(CC2)O[C@@H]2CC[C@@H](c4cc(F)cc(F)c4)N2C3=O)n1 [Example 4.5, 4-[(5′S,7a′R)-5′-(3,5-difluorophenyl)-3′-oxotetrahydro-1H,3′H-spiro[piperidine-4,2′-pyrrolo[2,1-b] [1,3]oxazol]-1-yl]pyrimidine-2-carbonitrile] | < 25
3 | N#Cc1cc(N2CCC3(O[C@@H]4CC[C@@H](c5ccccc5)N4C3=O)C(F)C2)ncn1 (single isomer, unassigned) [Example 4.94, 6-((3[R or S],4[S or R], 5′S,7a′R)-3-fluoro-3′-oxo-5′-phenyltetrahydro-3′H-spiro[piperidine-4,2′-pyrrolo[2,1-b]oxazol]-1-yl)pyrimidine-4-carbonitrile] | 154
4 | C[C@@]12CC[C@@H](c3ccccc3)N1C(=O)C1(CCN(c3ccnc4c(F)cnn34)CC1)O2 [Example 4.81, (5′S,7a′R)-1-(3-fluoropyrazolo[1,5-a]pyrimidin-7-yl)-7a′-methyl-5′-phenyltetrahydro-3′H-spiro[piperidine-4,2′-pyrrolo[2,1-b] [1,3]oxazol]-3′-one] | 51.2
5 | N#Cc1ncc(N2CCC3(CC2)O[C@@H]2CC[C@@H](c4cc(F)cc(F)c4)N2C3=O)cn1 [Example 4.45, 5-[(5′S,7a′R)-5′-(3,5-difluorophenyl)-3′-oxotetrahydro-1H,3′H-spiro[piperidine-4,2′-pyrrolo[2,1-b] [1,3]oxazol]-1-yl]pyrimidine-2-carbonitrile] | 250
6 | O=C1N2[C@@H](CC[C@H]2c2cc(F)cc(F)c2)OC12CCN(c1ccnc3ccnn13)CC2 [Example 4.6, (5′S,7a′R)-5′-(3,5-difluorophenyl)-1-(pyrazolo[1,5-a]pyrimidin-7-yl)tetrahydro-3′H-spiro[piperidine-4,2′-pyrrolo[2,1-b] [1,3]oxazol]-3′-one] | < 25
7 | CC1CN(C(=O)c2ccccc2)CCC12O[C@@H]1CC[C@@H](c3cc(F)cc(F)c3)N1C2=O (single isomer, unassigned) [Example 2.5, (3[S or R],4[R or S], 5′S,7a′R)-1-benzoyl-5′-(3,5-difluorophenyl)-3-methyltetrahydro-3′H-spiro[piperidine-4,2′-pyrrolo[2,1-b]oxazol]-3′-one] | 40.7
8 | O=C1N2[C@@H](CC[C@H]2c2ccccc2)OC12CCN(c1ncnc3ccsc13)CC2 [Example 4.37, (5′S,7a′R)-5′-phenyl-1-(thieno[3,2-d]pyrimidin-4-yl)tetrahydro-3′H-spiro[piperidine-4,2′-pyrrolo[2,1-b] [1,3]oxazol]-3′-one] | < 25
9 | CC(C)(O)C#Cc1cccc(C(=O)N2CCC3(CC2)O[C@@H]2CC[C@@H](c4cc(F)cc(F)c4)N2C3=O)c1 [Example 5.24, (5′S,7a′R)-5′-(3,5-difluoro-phenyl)-1-(3-(3-hydroxy-3-methylbut-1-yn-1-yl)-benzoyl)tetrahydro-3′H-spiro[piperidine-4,2′-pyrrolo[2,1-b]oxazol]-3′-one] | < 25
10 | C#Cc1cc(C(=O)N2CCC3(CC2)O[C@@H]2CC[C@@H](c4cc(F)cc(F)c4)N2C3=O)ccn1 [Example 5.42, (5′S,7a′R)-5′-(3,5-difluoro-phenyl)-1-(2-ethynylpyri-dine-4-carbonyl)tetra-hydro-3′H-spiro[piperi-dine-4,2′-pyrrolo-[2,1-b] [1,3]oxazol]-3′-one] | 39.2
11 | O=C1N2[C@@H](CC[C@H]2c2cncc(F)c2)OC12CCN(c1ccnc3c(F)cnn13)CC2 [Example 4.49, (5′S,7a′R)-1-(3-fluoropyrazolo[1,5-a]pyrimidin-7-yl)-5′-(5-fluoropyridin-3-yl)tetrahydro-3′H-spiro[piperidine-4,2′-pyrrolo[2,1-b] [1,3]oxazol]-3′-one] | < 25
12 | O=C1N2[C@@H](CC[C@H]2c2ccccc2)OC12CCN(c1nc3cnccc3o1)CC2 [Example 4.159, (5′S,7a′R)-1-([1,3]oxazolo[4,5-c]pyridin-2-yl)-5′-phenyltetrahydro-3′H-spiro[piperidine-4,2′-pyrrolo[2,1-b] [1,3]oxazol]-3′-one] | 62.6
13 | N#Cc1ccc(C(=O)N2CCC3(CC2)O[C@@H]2CC[C@@H](c4cc(F)cc(F)c4)N2C3=O)cc1 [Example 5.21, 4-((5′S,7a′R)-5′-(3,5-difluorophenyl)-3′-oxo-tetrahydro-3′H-spiro [piperidine-4,2′-pyrrolo-[2,1-b]oxazole]-1-carbon-yl)benzonitrile] | 342
14 | O=C1N2[C@@H](CC[C@H]2c2ccccc2)OC12CCN(c1ncnn3c(F)cnc13)CC2 [Example 4.226, (5′S,7a′R)-1-(7-fluoroimidazo[2,1-f] [1,2,4]triazin-4-yl)-5′-phenyltetrahydro-3′H-spiro[piperidine-4,2′-pyrrolo[2,1-b] [1,3]oxazol]-3′-one] | < 25
15 | N#Cc1ccc(N2CCC3(CC2)S[C@@H]2CC[C@@H](c4ccccc4)N2C3=O)n2nccc12 [Example 4.145, 7-[(5′S,7a′R)-3′-oxo-5′-phenyltetrahydro-1H,3′H-spiro[piperidine-4,2′-pyrrolo[2,1-b] [1,3]thiazol]-1-yl]pyrazolo[1,5-a] pyridine-4-carbonitrile] | < 25
16 | O=C(c1ccc(N2CCC3(CC2)O[C@@H]2CC[C@@H](c4ccccc4)N2C3=O)nc1)C(F)F [Example 4.161, (5′S,7a′R)-1-[5-(difluoroacetyl)pyridin-2-yl]-5′-phenyltetrahydro-3′H-spiro[piperidine-4,2′-pyrrolo[2,1-b] [1,3]oxazol]-3′-one] | < 25

Second part, the compound after the results:

Row | EC50 [nM] | SMILES
17 | 493 | Cc1nccnc1C(=O)N1CCC2(CC1)O[C@@H]1CC[C@@H](c3cc(F)cc(F)c3)N1C2=O [Example 6.2, (5′S,7a′R)-5′-(3,5-difluorophenyl)-1-(3-methylpyrazine-2-carbonyl)tetrahydro-3′H-spiro[piperidine-4,2′-pyrrolo[2,1-b] [1,3]oxazol]-3′-one]
18 | 136 | Cc1nc(C(=O)N2CCC3(CC2)O[C@@H]2CC[C@@H](c4cc(F)cc(F)c4)N2C3=O)no1 [Example 6.20, (5′S,7a′R)-5′-(3,5-difluorophenyl)-1-(5-methyl-1,2,4-oxadi-azole-3-carbonyl)-tetrahydro-3′H-spiro [piperidine-4,2′-pyrrolo[2,1-b][1,3]oxazol]-3′-one]
19 | 881 | O=C(c1ccc(-n2nccn2)cc1)N1CCC2(CC1)O[C@@H]1CC[C@@H](c3cc(F)cc(F)c3)N1C2=O [Example 6.21]
20 | 47.6 | O=C(c1cccc2ccnn12)N1CCC2(CC1)O[C@@H]1CC[C@@H](c3cc(F)cc(F)c3)N1C2=O [Example 6.27, (5′S,7a′R)-5′-(3,5-difluorophenyl)-1-(pyrazolo[1,5-a]pyridine-7-carbonyl) tetrahydro-3′H-spiro [piperidine-4,2′-pyrrolo[2,1-b][1,3]oxazol]-3′-one]
21 | 907 | O=C1N2[C@@H](CC[C@H]2c2ccccc2)OC12CCN(c1ccc(OC3CCC3)nn1)CC2 [Example 11.9, (5′S,7a′R)-1-[6-(cyclobutyloxy)pyridazin-3-yl]-5′-phenyltetrahydro-3′H-spiro[piperidine-4,2′-pyrrolo[2,1-b][1,3]oxazol]-3′-one]
22 | 24.9 | O=C1N2[C@@H](CC[C@H]2c2ccccc2F)OC12CN(c1cccc3ncnn13)C2 [Example 13.20, (5′S,7a′R)-1-([1,2,4]triazolo[1,5-a]pyridin-5-yl)-5′-(2-fluorophenyl)tetrahydro-3′H-spiro[azetidine-3,2′-pyrrolo[2,1-b]oxazol]-3′-one, TFA salt]
23 | 429 | O=C1N2[C@@H](CC[C@H]2c2ccccc2F)OC12CN(S(=O)(=O)c1ccccc1)C2 [Example 8.5, (5′S,7a′R)-5′-(2-fluorophenyl)-1-(phenylsulfonyl)tetra-hydro-3′H-spiro[azetidine-3,2′-pyrrolo[2,1-b]oxazol]-3′-one]
24 | 34.2 | O=C(c1cc(F)cc(F)c1)N1CCC2(CC1)O[C@@H]1CC[C@@H](c3cc(F)cc(F)c3)N1C2=O [Example 6.48, (5′S,7a′R)-1-(3,5-difluorobenzene-1-carbonyl)-5′-(3,5-difluorophenyl)tetra-hydro-3′H-spiro [piperidine-4,2′-pyrrolo[2,1-b][1,3]oxazol]-3′-one]
25 | 807 | N#Cc1ccccc1CN1CCC2(CC1)O[C@@H]1CC[C@@H](c3cc(F)cc(F)c3)N1C2=O [Example 22.3, 2-{[(5′S,7a′R)-5′-(3,5-difluorophenyl)-3′-oxotetrahydro-1H,3′H-spiro[piperidine-4,2′-pyrrolo[2,1-b][1,3]oxazol]-1-yl]methyl}benzonitrile]
26 | 60.8 | O=C(c1coc(Cl)n1)N1CCC2(CC1)O[C@@H]1CC[C@@H](c3cccc(F)c3)N1C2=O [Example 6.127, (5′S,7a′R)-1-(2-chloro-1,3-oxazole-4-carbon-yl)-5′-(3-fluorophenyl)-tetrahydro-3′H-spiro [piperidine-4,2′-pyrrolo[2,1-b][1,3]oxazol]-3′-one]
27 | < 25 | O=C1N2[C@@H](CC[C@H]2c2cc(F)cc(F)c2)OC12CCN(c1ccc(-c3ncco3)c3ncnn13)CC2 [Example 21.1, (5′S,7a′R)-5′-(3,5-Difluorophenyl)-1-(8-(oxazol-2-yl)-[1,2,4]triazolo[1,5-a]pyridin-5-yl)tetrahydro-3′H-spiro[piperidine-4,2′-pyrrolo[2,1-b]oxazol]-3′-one]
28 | < 25 | Cc1cnc(-c2ccc(N3CCC4(CC3)O[C@@H]3CC[C@@H](c5ccccc5)N3C4=O)n3nccc23)o1 [Example 21.17, (5′S,7a′R)-1-[4-(5-methyl-1,3-oxazol-2-yl)pyrazolo[1,5-a]pyridin-7-yl]-5′-phenyltetrahydro-3′H-spiro[piperidine-4,2′-pyrrolo[2,1-b][1,3]oxazol]-3′-one]
